Assay results published in patent publication US7943804B2, “Lutein extraction from ozone-treated plant sources” (Board of Supervisors of Louisiana State University and …, priority 2006, dated 2011).
Like-named read-outs stand apart in the source and are kept apart here.

Assays:
[1] = system: AFB1 mutagenicity in Salmonella typhimurium tester strain TA100; format: cell-based; details: AFB1 500 ng/plate
[2] = system: Salmonella typhimurium tester strain TA100; details: for Number of Revertants (without use of AFB1): TA100
[3] = system: AFB1 mutagenicity, Salmonella strains; details: cited from earlier work
[4] = system: Salmonella typhimurium tester strain TA100; format: cell-based

CC1=C[C@H](O)CC(C)(C)[C@H]1/C=C/C(C)=C/C=C/C(C)=C/C=C/C=C(C)/C=C/C=C(C)/C=C/C1=C(C)C[C@@H](O)CC1(C)C [Lutein, β, e-carotene-3,3′-diol]
inhibition of AFB1 mutagenicity, result in words ([1]; TA100): inhibited AFB1 (500 ng/plate) mutagenicity in a dose-response manner
Number of Revertants ([1]; lutein standard 0.02 μg/plate): 876 ± 34
Percent Inhibition ([1]; lutein standard 0.02 μg/plate): 5.3%
Number of Revertants ([1]; lutein standard 0.2 μg/plate): 813 ± 45
Percent Inhibition ([1]; lutein standard 0.2 μg/plate): 12.1%
Number of Revertants ([1]; lutein standard 0.8 μg/plate): 741 ± 25
Percent Inhibition ([1]; lutein standard 0.8 μg/plate): 19.9%
Number of Revertants ([1]; lutein standard 2 μg/plate): 679 ± 39
Percent Inhibition ([1]; lutein standard 2 μg/plate): 26.6%
Number of Revertants ([1]; lutein standard 10 μg/plate): 568 ± 50
Percent Inhibition ([1]; lutein standard 10 μg/plate): 38.6%
mutagenic effect (increase of revertants over the natural rate) ([2]; TA100, result in words): neither purified lutein nor corn lutein extracts increase the number of revertants over the natural rate
Number of Revertants (without use of AFB1) ([2]; lutein standard 0.02 μg/plate): 247 ± 15
Number of Revertants (without use of AFB1) ([2]; lutein standard 0.2 μg/plate, listed as Lutein Standard): 258 ± 10
Number of Revertants (without use of AFB1) ([2]; lutein standard 0.2 μg/plate, listed as lutein standard): 254
Number of Revertants (without use of AFB1) ([2]; lutein standard 0.8 μg/plate, listed as Lutein Standard): 261 ± 13
Number of Revertants (without use of AFB1) ([2]; lutein standard 0.8 μg/plate, listed as lutein standard): 261
Number of Revertants (without use of AFB1) ([2]; lutein standard 2 μg/plate): 243 ± 8
Number of Revertants (without use of AFB1) ([2]; lutein standard 10 μg/plate, listed as Lutein Standard): 264 ± 12
Number of Revertants (without use of AFB1) ([2]; lutein standard 10 μg/plate, listed as lutein standard): 264
mutagenic effect of aflatoxin relative to control [3]: 2%
inhibition of AFB1 mutagenicity, result in words ([3]; test based on Salmonella strains): inhibit the mutagenicity of AFB1

CC1=CCCC(C)(C)[C@H]1/C=C/C(C)=C/C=C/C(C)=C/C=C/C=C(C)/C=C/C=C(C)/C=C/C1=C(C)CCCC1(C)C [α-carotene]
mutagenic effect of aflatoxin relative to control [3]: 2%

aflatoxin B1 [AFB1]
mutagenic potency [4]: about 925 revertants/plate
